Source: patent US9108963B2, “Pyrazolopyridine, pyrazolopyrazine, pyrazolopyrimidine, pyrazolothiophene and pyrazolothiazole compounds as MGLUR4 allosteric potentiators, compositions, and methods of treating neurological dysfunction” (Vanderbilt University, priority 2010, dated 2015)
Read-outs that look alike come from different tables or passages of the source.

Legend:
mGluR4 = mGluR4 (UniProt Q14833); experiment: mGluR4 potentiation assay (Ca2+ or thallium flux fluorescence, agonist EC20); format: cell-based, human or rat
Method: The disclosed compounds and compositions can be evaluated for their ability to act as a potentiator of metabotropic glutamate receptor activity, in particular mGluR4 activity, by any suitable known methodology known in the art. For example, Chinese Hamster Ovary (CHO) cells transfected with human mGluR4 or HEK cells co-transfected with rat mGluR4 and the G-protein regulated Inwardly Rectifying Potassium channel (GIRK) were plated in clear bottom assay plates for assay in a Hamamatsu FDSS Fluorometric Plate Reader. The cells were loaded with either a Ca2+-sensitive fluorescent dye or the thallium responsive dye and the plates were washed and placed into a suitable kinetic plate reader. For human mGluR4 assays, a fluorescence baseline was established for 3-5 seconds, the disclosed compounds were then added to the cells, and the response in cells was measured. Approximately two and a half minutes later, a concentration of mGluR4 orthosteric agonist (e.g. glutamate or L-AP4) eliciting approximately 20% (EC20) of the maximal agonist response was added to the cells, and the response was measured. Two minutes later, a concentration of mGluR4 agonist (e.g. glutamate or L-AP4) eliciting 80% (EC80) of the maximal agonist response was added to the cells, and the response was measured. For rat mGluR4/GIRK experiments, a baseline was established for approximately five seconds, disclosed compounds were added, and either an EC20 or EC80 concentration of agonist was added approximately two and one half minutes later.
The above described assay operated in two modes. In the first mode, a range of concentrations of the disclosed compounds are added to cells, followed by a single fixed concentration of agonist. If the compound acts as a potentiator, an EC50 value for potentiation and a maximum extent of potentiation by the compound at this concentration of agonist is determined by non-linear curve fitting. If the compound acts as a noncompetitive antagonist, an IC50 value is determined by non-linear curve fitting. In the second mode, several fixed concentrations of the disclosed compounds are added to various wells on a plate, followed by a range in concentrations of agonist for each concentration of disclosed compound. The EC50 values for the agonist at each concentration of compound are determined by non-linear curve fitting. A decrease in the EC50 value of the agonist with increasing concentrations of the sample compound (a leftward shift of the agonist concentration-response curve) is an indication of the degree of mGluR4 potentiation at a given concentration of the sample compound. A decrease in the maximal response of the agonist with increasing concentrations of the sample compounds, with or without a rightward shift in agonist potency, is an indication of the degree of noncompetitive antagonism at mGluR4. The second mode also indicates whether the sample compounds also affect the maximum response to mGluR4 to agonists.

mGluR5 = molecular target: T1, mGluR5 (Rattus norvegicus, UniProt P31424); experiment: mGluR5 negative allosteric modulation, decrease in response to non-maximal glutamate in HEK cells; format: cell-based; conditions: Table 3; read-out: mGlu5 IC50
T1 construct: expressed in transfected cells; host or cells: human embryonic kidney (HEK) cells
T1 sequence (P31424 21-1203): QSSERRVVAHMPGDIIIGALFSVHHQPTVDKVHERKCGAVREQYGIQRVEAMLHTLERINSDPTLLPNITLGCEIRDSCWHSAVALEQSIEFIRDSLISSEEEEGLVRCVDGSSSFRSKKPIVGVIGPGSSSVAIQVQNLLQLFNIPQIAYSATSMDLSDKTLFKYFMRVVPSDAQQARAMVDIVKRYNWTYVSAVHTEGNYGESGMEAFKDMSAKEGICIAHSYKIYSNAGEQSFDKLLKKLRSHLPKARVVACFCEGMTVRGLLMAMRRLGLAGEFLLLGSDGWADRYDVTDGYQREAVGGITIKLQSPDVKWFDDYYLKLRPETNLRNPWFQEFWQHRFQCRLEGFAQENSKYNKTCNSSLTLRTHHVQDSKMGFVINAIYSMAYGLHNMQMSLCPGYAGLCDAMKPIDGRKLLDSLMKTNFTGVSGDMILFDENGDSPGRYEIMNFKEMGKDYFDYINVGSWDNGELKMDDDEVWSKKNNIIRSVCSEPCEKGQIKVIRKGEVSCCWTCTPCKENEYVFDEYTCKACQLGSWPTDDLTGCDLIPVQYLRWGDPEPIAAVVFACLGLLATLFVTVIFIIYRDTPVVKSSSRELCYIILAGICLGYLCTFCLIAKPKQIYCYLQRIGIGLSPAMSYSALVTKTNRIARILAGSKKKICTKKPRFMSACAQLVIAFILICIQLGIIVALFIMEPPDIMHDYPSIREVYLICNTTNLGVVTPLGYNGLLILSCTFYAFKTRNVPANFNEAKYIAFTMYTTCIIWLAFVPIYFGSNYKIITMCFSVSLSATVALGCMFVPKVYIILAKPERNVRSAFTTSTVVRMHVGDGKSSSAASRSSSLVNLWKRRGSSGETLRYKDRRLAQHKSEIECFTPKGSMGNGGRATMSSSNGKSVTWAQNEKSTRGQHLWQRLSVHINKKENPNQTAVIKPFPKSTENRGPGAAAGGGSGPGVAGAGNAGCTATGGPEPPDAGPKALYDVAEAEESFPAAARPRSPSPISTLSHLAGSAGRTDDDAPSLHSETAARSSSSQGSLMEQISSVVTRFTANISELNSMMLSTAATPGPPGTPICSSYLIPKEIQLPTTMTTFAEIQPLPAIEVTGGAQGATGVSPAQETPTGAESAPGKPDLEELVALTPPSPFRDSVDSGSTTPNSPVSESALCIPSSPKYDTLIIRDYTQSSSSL
Text: Embodiments of the present invention are also mGluR5 negative allosteric modulators. Accordingly, in one aspect, the invention relates to compounds that are also useful as negative allosteric modulators of the metabotropic glutamate receptor subtype 5 (mGluR5). Negative allosteric modulators are non-competitive antagonists and can include a range of maximal antagonist activity from partial antagonists to inverse agonists. In one aspect, the present invention relates to compounds that allosterically modulate mGluR5 receptor activity, affecting the sensitivity of mGluR5 receptors to agonists without acting as orthosteric agonists themselves. […] The compounds of the invention can be useful in the treatment neurological and psychiatric disorders associated with glutamate dysfunction and other diseases in which metabotropic glutamate receptors are involved, as further described herein. […] In further aspect, the human embryonic kidney cells are transfected with human mGluR5. In yet a further aspect, human embryonic kidney cells are transfected with mGluR5 of a mammal.
In further aspect, the human embryonic kidney cells are transfected with human mGluR5. In yet a further aspect, human embryonic kidney cells are transfected with mGluR5 of a mammal.

[1] = Table 2, potentiation of mGluR4 agonist response, read-out: EC50

Structure (SMILES)	EC50 (mGluR4; [1])	EC50 (mGluR4; Table 3, read-out: mGlu4 EC50)	IC50 (mGluR5)
Fc1cncc(Oc2ccc(Nc3n[nH]c4cccnc34)cc2Cl)c1 [Example 112, N-(3-chloro-4-((5-fluoropyridin-3-yl)oxy)phenyl)-1H-pyrazolo[4,3-b]pyridin-3-amine]	611 nM	–	–
Clc1cc(Nc2n[nH]c3cccnc23)ccc1OCc1ccncc1 [Example 101, N-(3-chloro-4-(pyridin-4-ylmethoxy)phenyl)-1H-pyrazolo[4,3-b]pyridin-3-amine]	270 nM	–	–
Cc1cc(Nc2n[nH]c3cccnc23)ccc1Nc1ncccn1 [Example 130, 2-methyl-N4-(1H-pyrazolo[4,3-b]pyridin-3-yl)-N1-(pyrimidin-2-yl)benzene-1,4-diamine]	–	235 nM	–
Clc1cccc(Nc2ccc(Nc3n[nH]c4cccnc34)cc2Cl)n1 [Example 116, 2-chloro-N1-(6-chloropyridin-2-yl)-N4-(1H-pyrazolo[4,3-b]pyridin-3-yl)benzene-1,4-diamine]	–	82.5 nM	2430 nM
Fc1cccnc1Oc1ccc(Nc2n[nH]c3cccnc23)cc1Cl [Example 98, N-(3-chloro-4-((3-fluoropyridin-2-yl)oxy)phenyl)-1H-pyrazolo[4,3-b]pyridin-3-amine]	635 nM	–	–
Clc1cc(Nc2n[nH]c3cccnc23)ccc1Nc1cnc2ccccc2c1 [Example 122, 2-chloro-N4-(1H-pyrazolo[4,3-b]pyridin-3-yl)-N1-(quinolin-3-yl)benzene-1,4-diamine]	–	162 nM	–
Cc1cc(Nc2n[nH]c3cccnc23)ccc1Oc1ncccn1 [Example 113, N-(3-methyl-4-(pyrimidin-2-yloxy)phenyl)-1H-pyrazolo[4,3-b]pyridin-3-amine]	265 nM	–	–
Clc1cc(Nc2n[nH]c3cccnc23)ccc1OCC1CCCC1 [Example 105, N-(3-chloro-4-(cyclopentylmethoxy)phenyl)-1H-pyrazolo[4,3-b]pyridin-3-amine]	400 nM	–	–
FC(F)(F)c1ccnc(Oc2ccc(Nc3n[nH]c4cccnc34)cc2Cl)c1 [Example 97, N-(3-chloro-4-((4-(trifluoromethyl)pyridin-2-yl)oxy)phenyl)-1H-pyrazolo[4,3-b]pyridin-3-amine]	497 nM	–	–
Clc1cc(Nc2n[nH]c3cccnc23)ccc1Nc1cnccn1 [Example 117, 2-chloro-N1-(pyrazin-2-yl)-N4-(1H-pyrazolo[4,3-b]pyridin-3-yl)benzene-1,4-diamine]	–	30.6 nM	100 nM
Clc1cc(Nc2n[nH]c3cccnc23)ccc1Nc1cc2ccccc2cn1 [Example 115, 2-chloro-N1-(isoquinolin-3-yl)-N4-(1H-pyrazolo[4,3-b]pyridin-3-yl)benzene-1,4-diamine]	–	37.2 nM	–
Clc1cc(Nc2n[nH]c3cccnc23)ccc1OCc1ncccn1 [Example 108, N-(3-chloro-4-(pyrimidin-2-ylmethoxy)phenyl)-1H-pyrazolo[4,3-b]pyridin-3-amine]	1190 nM	–	–
Clc1cc(Nc2n[nH]c3cccnc23)ccc1Nc1cnc2ccccc2n1 [Example 126, 2-chloro-N4-(1H-pyrazolo[4,3-b]pyridin-3-yl)-N1-(quinoxalin-2-yl)benzene-1,4-diamine]	–	38 nM	3700 nM
Clc1cc(Nc2n[nH]c3cccnc23)ccc1Nc1ccccn1 [Example 114, 2-chloro-N4-(1H-pyrazolo[4,3-b]pyridin-3-yl)-N1-(pyridin-2-yl)benzene-1,4-diamine]	–	33.5 nM	582 nM
Clc1cc(Nc2n[nH]c3cccnc23)ccc1Nc1nccc2cccnc12 [Example 128, 2-chloro-N1-(1,7-naphthyridin-8-yl)-N4-(1H-pyrazolo[4,3-b]pyridin-3-yl)benzene-1,4-diamine]	–	455 nM	–
Clc1cc(Nc2n[nH]c3cccnc23)ccc1OCc1nccs1 [Example 103, N-(3-chloro-4-(thiazol-2-ylmethoxy)phenyl)-1H-pyrazolo[4,3-b]pyridin-3-amine]	360 nM	–	–

Structure (SMILES)	EC50 (mGluR4; [1])	EC50 (mGluR4; Table 3, read-out: mGlu4 EC50)	IC50 (mGluR5)
C[C@H](Oc1ccc(Nc2n[nH]c3cccnc23)cc1Cl)c1ccncc1 [Example 110, (S)-N-(3-chloro-4-(1-(pyridin-4-yl)ethoxy)phenyl)-1H-pyrazolo[4,3-b]pyridin-3-amine]	1230 nM	–	–
N#Cc1cncc(Oc2ccc(Nc3n[nH]c4cccnc34)cc2Cl)c1 [Example 111, 5-(4-((1H-pyrazolo[4,3-b]pyridin-3-yl)amino)-2-chlorophenoxy)nicotinonitrile]	84.8 nM	–	–
Cc1cccc(Nc2ccc(Nc3n[nH]c4cccnc34)cc2Cl)n1 [Example 120, 2-chloro-N1-(6-methylpyridin-2-yl)-N4-(1H-pyrazolo[4,3-b]pyridin-3-yl)benzene-1,4-diamine]	–	31.5 nM	550 nM
Fc1ccccc1COc1ccc(Nc2n[nH]c3cccnc23)cc1Cl [Example 99]	180 nM	–	–
COc1ccnc(Nc2ccc(Nc3n[nH]c4cccnc34)cc2Cl)n1 [Example 123, 2-chloro-N1-(4-methoxypyrimidin-2-yl)-N4-(1H-pyrazolo[4,3-b]pyridin-3-yl)benzene-1,4-diamine]	–	25.5 nM	670 nM
CC(Oc1ccc(Nc2n[nH]c3cccnc23)cc1Cl)c1ccccc1 (centres unmarked) [Example 100, N-(3-chloro-4-(1-phenylethoxy)phenyl)-1H-pyrazolo[4,3-b]pyridin-3-amine]	1600 nM	–	–
Cc1ccnc(Nc2ccc(Nc3n[nH]c4cccnc34)cc2Cl)c1 [Example 129, 2-chloro-N1-(4-methylpyridin-2-yl)-N4-(1H-pyrazolo[4,3-b]pyridin-3-yl)benzene-1,4-diamine]	–	19.4 nM	970 nM
C[C@H](Oc1ccc(Nc2n[nH]c3cccnc23)cc1Cl)c1ccccn1 [Example 107, (S)-N-(3-chloro-4-(1-(pyridin-2-yl)ethoxy)phenyl)-1H-pyrazolo[4,3-b]pyridin-3-amine]	610 nM	–	–
FC(F)(F)c1cccnc1Nc1ccc(Nc2n[nH]c3cccnc23)cc1Cl [Example 124, 2-chloro-N4-(1H-pyrazolo[4,3-b]pyridin-3-yl)-N1-(3-(trifluoromethyl)pyridin-2-yl)benzene-1,4-diamine]	–	1560 nM	1540 nM
Clc1ccccc1COc1ccc(Nc2n[nH]c3cccnc23)cc1Cl [Example 104]	1500 nM	–	–
Cc1ccc(Nc2ccc(Nc3n[nH]c4cccnc34)cc2Cl)nc1 [Example 119, 2-chloro-N1-(5-methylpyridin-2-yl)-N4-(1H-pyrazolo[4,3-b]pyridin-3-yl)benzene-1,4-diamine]	–	16.9 nM	590 nM
Clc1cc(Nc2n[nH]c3cccnc23)ccc1Nc1ncc2ccccc2n1 [Example 125, 2-chloro-N4-(1H-pyrazolo[4,3-b]pyridin-3-yl)-N1-(quinazolin-2-yl)benzene-1,4-diamine]	–	21.6 nM	–
FC(F)(F)c1ccnc(Nc2ccc(Nc3n[nH]c4cccnc34)cc2Cl)c1 [Example 121, 2-chloro-N4-(1H-pyrazolo[4,3-b]pyridin-3-yl)-N1-(4-(trifluoromethyl)pyridin-2-yl)benzene-1,4-diamine]	–	56.9 nM	–
Clc1cc(Nc2n[nH]c3cccnc23)ccc1OC1CCCc2cccnc21 (centres unmarked) [Example 109, N-(3-chloro-4-((5,6,7,8-tetrahydroquinolin-8-yl)oxy)phenyl)-1H-pyrazolo[4,3-b]pyridin-3-amine]	1000 nM	–	–
Clc1cc(Nc2n[nH]c3cccnc23)ccc1OCc1cccnc1 [Example 102, N-(3-chloro-4-(pyridin-3-ylmethoxy)phenyl)-1H-pyrazolo[4,3-b]pyridin-3-amine]	400 nM	–	–
Clc1cc(Nc2n[nH]c3cccnc23)ccc1OC1CCCCC1 [Example 106, N-(3-chloro-4-(cyclohexyloxy)phenyl)-1H-pyrazolo[4,3-b]pyridin-3-amine]	470 nM	–	–
